One assay concerns lung capillary leakage. As to conditions: mice, lipopolysaccharide treatment; literature (Peng et al.); cited from earlier work.
The test system of another assay is dermal fibroblasts. The following applies: literature (Bu et al., 2006); cited from earlier work.
The subject of assay [1] is endothelial cell monolayers (HUVECs). The following applies: literature (Schaphorst et al.; Xu et al.); cited from earlier work.
The test system of assay [2] is Erk1/2 activation in HUVECs. Description: Multiplex bead array assay of Erk1/2 phosphorylation. It counts as cell-based, human. As to conditions: for Inhibition of HDL-induced activation of Erk1/2 / Inhibition of S1P-induced activation of Erk1/2: PTX 100 ng/ml 12 h, 3 min; for Inhibition of HDL-induced activation of Erk1/2: antagonists added 15 min before HDL (containing 200 nM S1P); for Inhibition of S1P-induced activation of Erk1/2: antagonists added 15 min before S1P (200 nM). The method, then:
(§1) The effect of S1P and HDL on activation of Erk1/2 (A-D) and Akt (E-H) in HUVECs was determined by multiplex bead array assay. In A-D, the values for the fold difference in Erk1/2 phosphorylation were derived from the level of phosphoErk1/2 fluorescence in S1P or HDL treated cells divided by the level of phosphoErk1/2 fluorescence in control cells. In E-G, the values for the fold increase in Akt phosphorylation were derived from the level of phosphoAkt fluorescence in cells treated with S1P or HDL divided by the level of phosphoAkt fluorescence measured in control cells. The data depicted in panels A, C, E and G is based on treating HUVECs for the indicated times with 833 nM S1P or 333 μg/ml HDL (containing 133 nM S1P). The data depicted in panels B, D, F and H is based on treating HUVECs with indicated concentrations of S1P or HDL for 3 min. The level of S1P in the 3-fold dilutions of HDL tested in panel H ranged from 12-337 nM. Data are shown from a representative experiment.
(§2) In A and B, pertussis toxin (PTX, 100 ng/ml) or the PTX buffer was added to endothelial cell basal medium (EBM) during the final 12 h of serum starvation. BSA, S1P (200 nM) or HDL (containing 200 nM S1P) were then added to the medium and allowed to incubate with the cells for 3 min. In C and D, the S1P1 antagonist 857390 or the S1P1/S1P3 antagonist or vehicle were added to the medium 15 min prior to addition of S1P or HDL and allowed to incubate with the cells for 3 min. The graphed values were derived from the level of phosphoErk1/2 or phosphoAkt fluorescence in S1P- or HDL-treated cells divided by the level of phosphoErk1/2 or phosphoAkt fluorescence in BSA treated cells. Data are shown from representative experiments, antagonists and inhibitor experiments were performed 2-4 times (e.g. PTX, n=3; S1P1 antagonist, n=4; S1P1/S1P3 antagonist, n=2). Each data point is an average from two independent wells.
(§3) Approach: A bead-based multiplex assay will be used to determine changes in phosphorylated Erk1/2, phosphorylated Akt, and total Erk and total Akt in endothelial cells in response to treatments with HDLs from dislipidemic subjects and synthetic HDLs containing defined amounts of S1P. These assays will be conducted essentially as described by (1). Briefly, HUVECs will be seeded into 24 well dishes (Corning) at 2×10^5 cells per well and grown for 18 h in endothelial growth medium-2 (EGM-2, Lonza). The medium will then be replaced with endothelial basal medium (EBM) containing 0.1% FBS and the cells grown for 24 h. The medium will then be supplemented with HDL samples (i.e., CCHS subject serum-derived HDL freed of albumin- and apoB-containing lipoproteins) or synthetic HDLs (containing defined amounts of S1P). As described above, this will be done by removing a volume of the conditioned culture medium corresponding to that of the HDL to be added. The cells will be extracted with Bio-Plex cell lysis buffer (Bio-Rad, Hercules, Calif.) and protein concentration determined by Bio-Rad DC Protein Assay (Bio-Rad). Levels of phospho-Erk1/2, total-Erk1/2 and phospho-Akt in the extracts will be determined by multiplex bead assay using kits (Bio-Rad) and a Bioplex-200 instrument (Bio-Rad).

Assay [3] concerns endothelial cell monolayers (HUVECs). Put plainly: Electrical Cell Substrate Impedance Sensing (ECIS) assay of transendothelial electrical resistance (TEER). It counts as cell-based, human. The following applies: for Inhibition of the TEER response to HDL / Inhibition of the TEER response to S1P: PTX 1 μg/ml, antagonists 10 μM; for Inhibition of the TEER response to HDL: HDL 1000 or 621 μg/ml; for Inhibition of the TEER response to S1P: S1P 833 nM or 250 nM. How it is done: Confluent endothelial monolayers were grown under serum-free conditions until a minimal TEER plateau had been reached. The cells were then incubated with S1P or HDL in the presence or absence of PTX (A and B) or S1P1 antagonists (C and D). In A and B, S1P was used at 833 nM, HDL at 1000 μg/ml (containing 400 nM S1P) and PTX at 1 μg/ml. In C and D, S1P was used at 250 nM, HDL at 621 μg/ml (containing 250 nM S1P), the S1P1 antagonist 857390 at 10 μM and the S1P1/S1P3 antagonist VPC23019 at 10 μM. As controls, monolayers were treated with BSA-containing serum free medium (SFM) plus or minus vehicle buffer. Each of the TEER tracings shown is an average of two replicate wells and representative of three independent experiments. Impedance values were normalized by dividing each value by the level of impedance measured just prior to the addition of effectors. […]
ECIS: Electrical cell substrate impedance sensing (ECIS) assays will be conducted essentially as described in (1). Briefly, 8W10E+ electrode arrays will be pre-coated with human fibronectin (Invitrogen, Carlsbad, Calif.) at 100 μg/ml in 0.15M NaCl, 0.01M Tris, pH 8.0. HUVECs in EGM-2 medium will be seeded into the wells at a density of 1×10^5 cells per well. Electrical resistance (impedance) will be measured every […] at a frequency of 15 kHz. For every 48 h of culture, 50% volume of medium will be replaced with fresh EGM-2. When the electrical resistance reaches a maximal plateau (−3 days) the medium will be replaced with serum-free endothelial basal medium (EBM; Lonza) containing 1× penicillin-streptomycin-glutamine (Invitrogen). Electrical resistance will be monitored until a minimal plateau is reached (˜24 h). Either HDL from CCHS subjects (depleted of albumin and apoB lipoproteins) or synthetic HDLs will be introduced into the culture medium by removing a volume corresponding to that of the HDL to be added. The maximum volume of each HDL added will not exceed 1/25 of the 400 μl volume of conditioned culture medium in each well. For experiments evaluating the effects of pertussis toxin (PTX), PTX (100 ng/ml) or the PTX buffer (50% glycerol with 50 mM Tris, 10 mM glycine, and 0.5M NaCl, pH 7.5) will be added to EBM during the final 12 h of serum starvation. S1P or HDL will then be added to the medium. Electrical resistance will be monitored through 5 h post addition of agents.

The subject of the next assay is Akt activation in HUVECs. Description: Multiplex bead array assay of Akt phosphorylation. As to conditions: PTX 100 ng/ml 12 h, 3 min; for Inhibition of HDL-induced activation of Akt: antagonists added 15 min before HDL (containing 200 nM S1P); for Inhibition of S1P-induced activation of Akt: antagonists added 15 min before S1P (200 nM). In kind it is cell-based, human. How it is done: as §1, §2
as §3, with “The medium will then be replaced with endothelial basal medium (EBM) containing 0.1% FBS and the cells grown for 24 h. The medium will then be supplemented with HDL samples (i.e., CCHS subject serum-derived HDL freed of albumin- and apoB-containing lipoproteins) or synthetic HDLs (containing defined amounts of S1P). As described above, this will be done by removing a volume of the conditioned culture medium corresponding to that of the HDL to be added.” left out

With `CCCCCCCCCCCCC/C=C/[C@@H](O)[C@@H](N)COP(=O)(O)O` [S1P, sphingosine 1-phosphate], the “Effect on lung capillary leakage” value in the assay on lung capillary leakage was “greatly reduces lung capillary leakage”. Besides, in the assay on dermal fibroblasts, the “Activation of ERK1/2 in dermal fibroblasts” value is listed as “not reproduced” and the “Induction of MMP1 expression in dermal fibroblasts” value is given as “not reproduced”. The “Effect on endothelial barrier activity (TEER) in cultured endothelial cells” value in assay [1] was “increase endothelial barrier activity”. The “Effect on Erk1/2 phosphorylation” value in assay [2] (833 nM S1P or 333 μg/ml HDL, time course) is recorded as “transient increase in Erk1/2 phosphorylation”. Besides, in assay [2] (3 min treatment), the “Dose dependence of Erk1/2 activation response” value is reported as “dose dependent”. Further, in assay [3] (confluent endothelial monolayers in serum free medium, substance added alone), the “Effect on transendothelial electrical resistance (TEER)” value was “dose-dependent increase in TEER”.
As to `CCCCCCCCc1cccc(NC(=O)[C@H](N)COP(=O)(O)O)c1` [VPC23019], in the assay on Akt activation in HUVECs, the “Inhibition of HDL-induced activation of Akt” value is on record as “inhibited” and the “Inhibition of S1P-induced activation of Akt” value is reported as “inhibited”. Besides, in assay [2], the “Inhibition of HDL-induced activation of Erk1/2” value is recorded as “inhibited” and the “Inhibition of S1P-induced activation of Erk1/2” value is “inhibited”. Further, in assay [3], the “Inhibition of the TEER response to HDL” value is listed as “inhibited” and the “Inhibition of the TEER response to S1P” value is given as “inhibited”.
As to pertussis toxin [PTX], in the assay with Akt activation in HUVECs, the “Inhibition of HDL-induced activation of Akt” value was “inhibited” and the “Inhibition of S1P-induced activation of Akt” value was “inhibited”. In addition, in assay [2], the “Inhibition of HDL-induced activation of Erk1/2” value is listed as “inhibited” and the “Inhibition of S1P-induced activation of Erk1/2” value is “inhibited”. Moreover, in assay [3], the “Inhibition of the TEER response to HDL” value is reported as “completely abrogated” and the “Inhibition of the TEER response to S1P” value is on record as “inhibited”.
Take `CCCCCCCCCCCCCCC[C@@H](O)[C@@H](N)COP(=O)(O)O` [DH-S1P, dihydro-S1P]: in the assay on dermal fibroblasts, the “Activation of ERK1/2 in dermal fibroblasts” value is recorded as “mediate activation ERK1/2” and the “Induction of MMP1 expression in dermal fibroblasts” value is listed as “induction of matrix metalloproteinase 1 (MMP1) expression”.

The record behind these values is patent US20110034419A1, “Cardioprotective Drugs and Diagnostics for Assessing Risk of Cardiovascular Disease” (priority 2009, published 2011).
